What was measured:
[1] = target: T1, 5-HT1A serotonin receptor (Rattus norvegicus, UniProt P19327); assay: displacement of [3H] 8-OH DPAT from the 5-HT1A serotonin receptor (procedure of Hall et al.); format: binding; conditions: for IC50: [3H] 8-OH DPAT displacement, read-out: Affinity for 5HT1A Receptor IC50; for inhibition at 0.1 µM / inhibition at 1 µM: read-out: Affinity for 5HT1A Receptor % Inhibition
T1 sequence (P19327 1-422): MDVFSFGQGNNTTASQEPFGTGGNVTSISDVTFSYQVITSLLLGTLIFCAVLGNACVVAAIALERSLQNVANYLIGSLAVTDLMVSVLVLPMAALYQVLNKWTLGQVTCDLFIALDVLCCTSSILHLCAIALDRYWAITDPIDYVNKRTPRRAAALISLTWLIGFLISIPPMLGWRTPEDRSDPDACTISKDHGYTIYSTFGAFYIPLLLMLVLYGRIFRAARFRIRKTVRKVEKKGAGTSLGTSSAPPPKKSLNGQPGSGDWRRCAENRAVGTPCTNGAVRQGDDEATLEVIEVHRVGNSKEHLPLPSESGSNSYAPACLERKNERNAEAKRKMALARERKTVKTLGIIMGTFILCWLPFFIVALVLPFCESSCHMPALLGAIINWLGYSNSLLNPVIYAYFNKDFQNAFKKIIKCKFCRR
Description: 8-OH DPAT (dipropylaminotetralin) from the 5-HT1A serotonin receptor by the procedure of Hall et al., J. Neurochem.

[2] = target: D2 dopamine receptor (Rattus norvegicus, UniProt P61169); assay: D2 dopamine receptor binding study with 3H-spiroperiodol in homogenized limbic brain tissue; conditions: read-out: Affinity for D2 Receptor % Inhibition
Sequence of D2 dopamine receptor (P61169 whole entry): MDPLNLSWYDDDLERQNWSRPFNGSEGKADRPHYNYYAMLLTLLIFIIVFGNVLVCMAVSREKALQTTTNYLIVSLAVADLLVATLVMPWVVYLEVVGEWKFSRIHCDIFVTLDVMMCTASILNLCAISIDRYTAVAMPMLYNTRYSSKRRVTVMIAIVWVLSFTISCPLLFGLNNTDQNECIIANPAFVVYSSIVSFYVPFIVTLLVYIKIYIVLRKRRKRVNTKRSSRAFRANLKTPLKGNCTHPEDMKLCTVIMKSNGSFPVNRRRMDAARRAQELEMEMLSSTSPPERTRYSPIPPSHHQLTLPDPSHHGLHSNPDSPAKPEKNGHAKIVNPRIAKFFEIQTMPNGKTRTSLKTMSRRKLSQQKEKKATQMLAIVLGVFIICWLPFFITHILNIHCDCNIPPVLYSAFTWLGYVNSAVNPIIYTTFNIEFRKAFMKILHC
Experimental: The D2 dopamine receptor binding study was in accordance with a modification of the procedure of Field et al., Brain Res., 136, pp. 578-584 (1977) and Yamamura et al., eds., Neurotransmitter Receptor Binding, Raven Press, N.Y. (1978), wherein homogenized limbic brain tissue is incubated with ^3H-spiroperiodol and various concentrations of test compounds, filtered and washed and shaken with Hydrofluoro scintillation cocktail (National Diagnostics) and counted in a Packard 460CD scintillation counter.

| SMILES | IC50 [1] [nM] | inhibition at 0.1 µM [1] [%] | inhibition at 1 µM [1] [%] | inhibition at 0.1 µM ([2]; at 0.1 µM) [%] | inhibition at 1 µM ([2]; at 1 µM) [%] | inhibition at 10 µM ([2]; at 10 µM) [%] |
| --- | --- | --- | --- | --- | --- | --- |
| COc1ccccc1N1CCN(CC(C(=O)NC(C)(C)C)c2ccccc2)CC1 (racemic) [Example 2, N-Tertiary-butyl 3-[4-(2-methoxyphenyl)piperazinyl]-2-phenyl-propanamide] | 25 | 69 | 86 | 8 | 32 | – |
| COc1ccccc1N1CCN(CC(Cc2ccccc2)C(=O)NC(C)(C)C)CC1 (racemic) [Example 3, N-Tertiary-butyl 2-[[4-(2-methoxyphenyl)piperazinyl]methyl]-3-phenyl-propanamide] | 11.4 | 90 | 100 | – | – | 38 |
| COc1ccccc1N1CCN(CCC(=O)NC2(C)CCCCC2)CC1 [Example 4, 4-(2-Methoxyphenyl)-N-(1-methylcyclohexyl)-1-piperazinepropanamide] | – | 56 | – | – | – | – |
| COc1ccccc1N1CCN(CCC(=O)NC(C)(C)C)CC1 [Example 6, N-(1,1-Dimethylethyl)-3-[4-(2-methoxyphenyl)-1-piperazinyl]-propanamide] | 287 | 18 | 72 | – | – | – |
